US20090156518A1, “STABLE PHARMACEUTICAL COMPOSITION COMPRISING BETA-LACTAM ANTIBIOTIC AND BUFFER” (priority 2006, published 2009)
Values belong to the compound of their own block, whether it stands above or below them.

Test: amounts of β-lactam antibiotic, β-lactamase inhibitor (C18 reverse-phase LC, UV-VIS) and aminoglycoside (HPLC-ELSD) in solution over time
Format: physicochemical
[1] = Example 10: mezlocillin sodium 2 g, sulbactam sodium 0.5 g, etimicin sulfate 200 mg, citrate pH 6.5, 200 mL water, room temperature, Time 0 h
[2] = Example 10: mezlocillin sodium 2 g, sulbactam sodium 0.5 g, etimicin sulfate 200 mg, citrate pH 6.5, 200 mL water, room temperature, Time 1 h
[3] = Example 10: mezlocillin sodium 2 g, sulbactam sodium 0.5 g, etimicin sulfate 200 mg, citrate pH 6.5, 200 mL water, room temperature, Time 2 h
[4] = Example 11: freeze-dried mezlocillin sodium, sulbactam sodium, citrate pH 6.5, 7 days 0° C., in 100 mL 5% fructose + etimicin sulfate 200 mg, Time 0 h
[5] = Example 11: freeze-dried mezlocillin sodium, sulbactam sodium, citrate pH 6.5, 7 days 0° C., in 100 mL 5% fructose + etimicin sulfate 200 mg, Time 1 h
[6] = Example 11: freeze-dried mezlocillin sodium, sulbactam sodium, citrate pH 6.5, 7 days 0° C., in 100 mL 5% fructose + etimicin sulfate 200 mg, Time 2 h
[7] = Example 11: freeze-dried mezlocillin sodium, sulbactam sodium, citrate pH 6.5, 7 days 0° C., in 100 mL 5% fructose + etimicin sulfate 200 mg, Time 4 h
[8] = Example 11: freeze-dried mezlocillin sodium, sulbactam sodium, citrate pH 6.5, 7 days 0° C., in 100 mL 5% fructose + etimicin sulfate 200 mg, Time 6 h
[9] = Example 11: freeze-dried mezlocillin sodium, sulbactam sodium, citrate pH 6.5, 7 days 0° C., in 100 mL 5% fructose + etimicin sulfate 200 mg, Time 8 h

- amount of component as percentage with respect to the amount at the initial time (Example 7: ceftriaxone sodium 4 g, sulbactam sodium 1 g, gentamicin sulfate 80 mg, citrate pH 6.75, 200 mL water, room temperature (22° C.), Time 0 h): 97.01%
- amount of component as percentage with respect to the amount at the initial time (Example 7: ceftriaxone sodium 4 g, sulbactam sodium 1 g, gentamicin sulfate 80 mg, citrate pH 6.75, 200 mL water, room temperature (22° C.), Time 1 h): 100.3%
- amount of component as percentage with respect to the amount at the initial time (Example 7: ceftriaxone sodium 4 g, sulbactam sodium 1 g, gentamicin sulfate 80 mg, citrate pH 6.75, 200 mL water, room temperature (22° C.), Time 2 h): 96.40%
- amount of component as percentage with respect to the amount at the initial time (Example 7: ceftriaxone sodium 4 g, sulbactam sodium 1 g, gentamicin sulfate 80 mg, citrate pH 6.75, 200 mL water, room temperature (22° C.), Time 4 h): 99.01%
- amount of component as percentage with respect to the amount at the initial time (Example 7: ceftriaxone sodium 4 g, sulbactam sodium 1 g, gentamicin sulfate 80 mg, citrate pH 6.75, 200 mL water, room temperature (22° C.), Time 6 h): 98.91%
- amount of component as percentage with respect to the amount at the initial time (Example 7: ceftriaxone sodium 4 g, sulbactam sodium 1 g, gentamicin sulfate 80 mg, citrate pH 6.75, 200 mL water, room temperature (22° C.), Time 8 h): 99.53%
- amount of component as percentage with respect to the amount at the initial time (Example 8: freeze-dried ceftriaxone sodium, tazobactam sodium, gentamicin sulfate, citrate pH 6.75, 2.5% fructose, 7 days 0° C., in 100 mL water, Time 0 h): 98.75%
- amount of component as percentage with respect to the amount at the initial time (Example 8: freeze-dried ceftriaxone sodium, tazobactam sodium, gentamicin sulfate, citrate pH 6.75, 2.5% fructose, 7 days 0° C., in 100 mL water, Time 1 h): 100.1%
- amount of component as percentage with respect to the amount at the initial time (Example 8: freeze-dried ceftriaxone sodium, tazobactam sodium, gentamicin sulfate, citrate pH 6.75, 2.5% fructose, 7 days 0° C., in 100 mL water, Time 2 h): 99.97%
- amount of component as percentage with respect to the amount at the initial time (Example 8: freeze-dried ceftriaxone sodium, tazobactam sodium, gentamicin sulfate, citrate pH 6.75, 2.5% fructose, 7 days 0° C., in 100 mL water, Time 4 h): 98.87%
- amount of component as percentage with respect to the amount at the initial time (Example 8: freeze-dried ceftriaxone sodium, tazobactam sodium, gentamicin sulfate, citrate pH 6.75, 2.5% fructose, 7 days 0° C., in 100 mL water, Time 6 h): 99.27%
- amount of component as percentage with respect to the amount at the initial time (Example 8: freeze-dried ceftriaxone sodium, tazobactam sodium, gentamicin sulfate, citrate pH 6.75, 2.5% fructose, 7 days 0° C., in 100 mL water, Time 8 h): 100.5%
- amount of component as percentage with respect to the amount at the initial time (Example 9: freeze-dried ceftriaxone sodium, citrate pH 6.75, 7 days 0° C., in 100 mL 5% fructose solution, Time 0 h): 97.27%
- amount of component as percentage with respect to the amount at the initial time (Example 9: freeze-dried ceftriaxone sodium, citrate pH 6.75, 7 days 0° C., in 100 mL 5% fructose solution, Time 1 h): 99.38%
- amount of component as percentage with respect to the amount at the initial time (Example 9: freeze-dried ceftriaxone sodium, citrate pH 6.75, 7 days 0° C., in 100 mL 5% fructose solution, Time 2 h): 99.95%
- amount of component as percentage with respect to the amount at the initial time (Example 9: freeze-dried ceftriaxone sodium, citrate pH 6.75, 7 days 0° C., in 100 mL 5% fructose solution, Time 4 h): 97.81%
- amount of component as percentage with respect to the amount at the initial time (Example 9: freeze-dried ceftriaxone sodium, citrate pH 6.75, 7 days 0° C., in 100 mL 5% fructose solution, Time 6 h): 99.03%
- amount of component as percentage with respect to the amount at the initial time (Example 9: freeze-dried ceftriaxone sodium, citrate pH 6.75, 7 days 0° C., in 100 mL 5% fructose solution, Time 8 h): 98.51%
- amount of component as percentage with respect to the amount at the initial time (Example 19: ceftriaxone sodium 2 g, sulbactam sodium 2 g, gentamicin sulfate 160 mg, citrate pH 6.75, 200 mL water, room temperature, Time 0 h): 97.01%
- amount of component as percentage with respect to the amount at the initial time (Example 19: ceftriaxone sodium 2 g, sulbactam sodium 2 g, gentamicin sulfate 160 mg, citrate pH 6.75, 200 mL water, room temperature, Time 1 h): 100.3%
- amount of component as percentage with respect to the amount at the initial time (Example 19: ceftriaxone sodium 2 g, sulbactam sodium 2 g, gentamicin sulfate 160 mg, citrate pH 6.75, 200 mL water, room temperature, Time 2 h): 96.40%
- amount of component as percentage with respect to the amount at the initial time (Example 19: ceftriaxone sodium 2 g, sulbactam sodium 2 g, gentamicin sulfate 160 mg, citrate pH 6.75, 200 mL water, room temperature, Time 4 h): 99.01%
- amount of component as percentage with respect to the amount at the initial time (Example 19: ceftriaxone sodium 2 g, sulbactam sodium 2 g, gentamicin sulfate 160 mg, citrate pH 6.75, 200 mL water, room temperature, Time 6 h): 98.91%
- amount of component as percentage with respect to the amount at the initial time (Example 19: ceftriaxone sodium 2 g, sulbactam sodium 2 g, gentamicin sulfate 160 mg, citrate pH 6.75, 200 mL water, room temperature, Time 8 h): 99.53%
- amount of component as percentage with respect to the amount at the initial time (Example 20: ceftriaxone sodium 2 g, tazobactam sodium 2 g, gentamicin sulfate 160 mg, citrate pH 6.75, 200 mL water, room temperature, Time 0 h): 98.75%
- amount of component as percentage with respect to the amount at the initial time (Example 20: ceftriaxone sodium 2 g, tazobactam sodium 2 g, gentamicin sulfate 160 mg, citrate pH 6.75, 200 mL water, room temperature, Time 1 h): 100.1%
- amount of component as percentage with respect to the amount at the initial time (Example 20: ceftriaxone sodium 2 g, tazobactam sodium 2 g, gentamicin sulfate 160 mg, citrate pH 6.75, 200 mL water, room temperature, Time 2 h): 99.97%
- amount of component as percentage with respect to the amount at the initial time (Example 20: ceftriaxone sodium 2 g, tazobactam sodium 2 g, gentamicin sulfate 160 mg, citrate pH 6.75, 200 mL water, room temperature, Time 4 h): 98.87%
- amount of component as percentage with respect to the amount at the initial time (Example 20: ceftriaxone sodium 2 g, tazobactam sodium 2 g, gentamicin sulfate 160 mg, citrate pH 6.75, 200 mL water, room temperature, Time 6 h): 99.27%
- amount of component as percentage with respect to the amount at the initial time (Example 20: ceftriaxone sodium 2 g, tazobactam sodium 2 g, gentamicin sulfate 160 mg, citrate pH 6.75, 200 mL water, room temperature, Time 8 h): 100.5%
Structure (SMILES): CO/N=C(\C(=O)N[C@@H]1C(=O)N2C(C(=O)O)=C(CSc3nc(=O)c(=O)[nH]n3C)CS[C@H]12)c1csc(N)n1 [Ceftriaxone sodium]

- amount of component as percentage with respect to the amount at the initial time (Example 6: freeze-dried cefoperazone sodium 4 g, sulbactam sodium 1 g, citrate pH 6.75, + etimicin sulfate 200 mg, 7 days 0° C., dissolved in 100 mL water, Time 0 h): 108.9%
- amount of component as percentage with respect to the amount at the initial time (Example 6: freeze-dried cefoperazone sodium 4 g, sulbactam sodium 1 g, citrate pH 6.75, + etimicin sulfate 200 mg, 7 days 0° C., dissolved in 100 mL water, Time 1 h): 100.2%
- amount of component as percentage with respect to the amount at the initial time (Example 6: freeze-dried cefoperazone sodium 4 g, sulbactam sodium 1 g, citrate pH 6.75, + etimicin sulfate 200 mg, 7 days 0° C., dissolved in 100 mL water, Time 2 h): 100.5%
- amount of component as percentage with respect to the amount at the initial time (Example 6: freeze-dried cefoperazone sodium 4 g, sulbactam sodium 1 g, citrate pH 6.75, + etimicin sulfate 200 mg, 7 days 0° C., dissolved in 100 mL water, Time 4 h): 100.4%
- amount of component as percentage with respect to the amount at the initial time (Example 6: freeze-dried cefoperazone sodium 4 g, sulbactam sodium 1 g, citrate pH 6.75, + etimicin sulfate 200 mg, 7 days 0° C., dissolved in 100 mL water, Time 6 h): 100.4%
- amount of component as percentage with respect to the amount at the initial time (Example 6: freeze-dried cefoperazone sodium 4 g, sulbactam sodium 1 g, citrate pH 6.75, + etimicin sulfate 200 mg, 7 days 0° C., dissolved in 100 mL water, Time 8 h): 97.50%
- amount of component as percentage with respect to the amount at the initial time [1]: 100.1%
- amount of component as percentage with respect to the amount at the initial time [2]: 100.6%
- amount of component as percentage with respect to the amount at the initial time [3]: 99.79%
- amount of component as percentage with respect to the amount at the initial time [4]: 100.1%
- amount of component as percentage with respect to the amount at the initial time [5]: 100.4%
- amount of component as percentage with respect to the amount at the initial time [6]: 99.31%
- amount of component as percentage with respect to the amount at the initial time [7]: 99.56%
- amount of component as percentage with respect to the amount at the initial time [8]: 99.61%
- amount of component as percentage with respect to the amount at the initial time [9]: 99.25%
Structure (SMILES): CCN[C@@H]1C[C@H](N)[C@@H](O[C@H]2O[C@H](CN)CC[C@H]2N)[C@H](O)[C@H]1O[C@H]1OC[C@](C)(O)[C@H](NC)[C@H]1O.O=S(=O)(O)O [Etimicin sulfate, etimicin sulfate]

- amount of component as percentage with respect to the amount at the initial time [1]: 96.48%
- amount of component as percentage with respect to the amount at the initial time [2]: 95.90%
- amount of component as percentage with respect to the amount at the initial time [3]: 71.70%
- amount of component as percentage with respect to the amount at the initial time (Example 10: mezlocillin sodium 2 g, sulbactam sodium 0.5 g, etimicin sulfate 200 mg, citrate pH 6.5, 200 mL water, room temperature, Time 4 h): 91.78%
- amount of component as percentage with respect to the amount at the initial time (Example 10: mezlocillin sodium 2 g, sulbactam sodium 0.5 g, etimicin sulfate 200 mg, citrate pH 6.5, 200 mL water, room temperature, Time 6 h): 93.08%
- amount of component as percentage with respect to the amount at the initial time (Example 10: mezlocillin sodium 2 g, sulbactam sodium 0.5 g, etimicin sulfate 200 mg, citrate pH 6.5, 200 mL water, room temperature, Time 8 h): 97.69%
- amount of component as percentage with respect to the amount at the initial time [4]: 116.6%
- amount of component as percentage with respect to the amount at the initial time [5]: 94.83%
- amount of component as percentage with respect to the amount at the initial time [6]: 91.86%
- amount of component as percentage with respect to the amount at the initial time [7]: 91.96%
- amount of component as percentage with respect to the amount at the initial time [8]: 91.52%
- amount of component as percentage with respect to the amount at the initial time [9]: 98.56%
- amount of component as percentage with respect to the amount at the initial time (Example 13: freeze-dried mezlocillin sodium, citrate pH 6, 7 days 0° C., in 100 mL 5% fructose + etimicin sulfate 200 mg, Time 0 h): 95.05%
- amount of component as percentage with respect to the amount at the initial time (Example 13: freeze-dried mezlocillin sodium, citrate pH 6, 7 days 0° C., in 100 mL 5% fructose + etimicin sulfate 200 mg, Time 1 h): 96.63%
- amount of component as percentage with respect to the amount at the initial time (Example 13: freeze-dried mezlocillin sodium, citrate pH 6, 7 days 0° C., in 100 mL 5% fructose + etimicin sulfate 200 mg, Time 2 h): 89.33%
- amount of component as percentage with respect to the amount at the initial time (Example 13: freeze-dried mezlocillin sodium, citrate pH 6, 7 days 0° C., in 100 mL 5% fructose + etimicin sulfate 200 mg, Time 4 h): 98.72%
- amount of component as percentage with respect to the amount at the initial time (Example 13: freeze-dried mezlocillin sodium, citrate pH 6, 7 days 0° C., in 100 mL 5% fructose + etimicin sulfate 200 mg, Time 6 h): 92.73%
- amount of component as percentage with respect to the amount at the initial time (Example 13: freeze-dried mezlocillin sodium, citrate pH 6, 7 days 0° C., in 100 mL 5% fructose + etimicin sulfate 200 mg, Time 8 h): 92.51%
Structure (SMILES): CC1(C)S[C@@H]2[C@H](NC(=O)[C@H](NC(=O)N3CCN(S(C)(=O)=O)C3=O)c3ccccc3)C(=O)N2[C@H]1C(=O)O [Mezlocillin sodium]
